This note sets out measurements from ChEMBL document CHEMBL1201862, “PubChem BioAssay data set” (2004).

SMILES strings stand for the structures.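 A five-concentration, 48-hour dose response in 96-well plates underlies each endpoint, interpolated linearly between surrounding concentrations. Here, GI50 denotes the concentration required for 50% inhibition of growth.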 Active and inactive are the calls of the source. No stated cut-off is given here; in the data, active = GI50 up to about 1.1 µM and inactive = higher.

Test systems include T47D; MDA-MB-435; SR; OVCAR-4; TK-10; Hs-578T; RXF 393; SK-OV-3; OVCAR-5; HCT-15; SW-620; Malme-3M; DU-145; SNB-19; SNB-75; SF-295; UACC-257; BT-549; 786-0.
Common to all, as to experiment: NCI-60 cell line screen, 48 h

In the case of `Cc1nc2[nH]ncn2c(=O)c1CCO`, the GI50 in the assay with T47D, in the assay on MDA-MB-435, with SR, in the assay on OVCAR-4, with TK-10 and in the assay on Hs-578T was > 10 µM (inactive) each time. The GI50 is > 10 µM (inactive) in the assay with RXF 393; > 10 µM (inactive) in the assay with SK-OV-3; > 10 µM (inactive) with OVCAR-5; > 10 µM in the assay on HCT-15; > 10 µM (inactive) in the assay on SW-620; > 10 µM (inactive) in the assay on Malme-3M. The GI50 with DU-145, in the assay with SNB-19 and in the assay on SNB-75 was > 10 µM (inactive) each time.
For the compound `CCCCCCCCCCCC1=NCCN1`, the GI50 in the assay with T47D was 73.3 µM (inactive); with MDA-MB-435 it was > 100 µM (inactive); with SR it was 19.9 µM (inactive); with SF-295, 87.7 µM (inactive); in the assay on OVCAR-4 it was 14.8 µM (inactive); in the assay with TK-10 it was > 100 µM (inactive). The GI50 with Hs-578T is 83.9 µM (inactive); in the assay with RXF 393, > 100 µM (inactive); in the assay with SK-OV-3, > 100 µM (inactive); in the assay on HCT-15, 15.1 µM; in the assay with SW-620 it was 34.7 µM (inactive); in the assay on DU-145, 74.1 µM (inactive). Besides, the GI50 in the assay with UACC-257 is > 100 µM (inactive); in the assay on SNB-19, > 100 µM (inactive); with SNB-75, 32 µM (inactive).
As for `CCc1c(-c2ccccc2)[nH]c2ccccc2c1=O`, the GI50 was 46.5 µM (inactive) in the assay on T47D; 46.2 µM (inactive) with MDA-MB-435; 49.1 µM (inactive) with SR; 33.2 µM (inactive) in the assay on OVCAR-4; 44.8 µM (inactive) with TK-10; 59.4 µM (inactive) with BT-549. Also, the GI50 was 27.1 µM (inactive) with RXF 393; 28.1 µM (inactive) in the assay with SK-OV-3; > 100 µM (inactive) with OVCAR-5; 28.2 µM in the assay with HCT-15; 72.4 µM (inactive) in the assay with Malme-3M; 76.9 µM (inactive) in the assay with DU-145. The GI50 in the assay with UACC-257 is 64.7 µM (inactive); in the assay on SNB-19, > 100 µM (inactive).
As for `COc1cc(CCC(=O)O)c2cc3ccccc3cc2c1O`, the GI50 in the assay on T47D was 14.6 µM (inactive); in the assay with MDA-MB-435, 15.3 µM (inactive); in the assay with 786-0 it was 16.8 µM (inactive); in the assay with SR, 15.6 µM (inactive); in the assay on SF-295, 20 µM (inactive); in the assay on OVCAR-4 it was 15.6 µM (inactive). Also, the GI50 was 33.3 µM (inactive) with TK-10; 17.1 µM (inactive) in the assay with BT-549; 39.6 µM (inactive) with Hs-578T; 67.1 µM (inactive) in the assay with SK-OV-3; 20.4 µM (inactive) in the assay on OVCAR-5; 18.2 µM in the assay with HCT-15. For the same compound, the GI50 is 21.4 µM (inactive) with SW-620, 18.4 µM (inactive) with Malme-3M, 16.1 µM (inactive) in the assay on UACC-257 and 23.5 µM (inactive) in the assay with SNB-19.
Turning to `Cc1cc2oc3c(ccc(=O)n3C)c(=O)c2c(C)c1Cl`, the GI50 is 50.1 µM (inactive) with T47D; 28.1 µM (inactive) in the assay with MDA-MB-435; 38.1 µM (inactive) in the assay with SR; 54.8 µM (inactive) with SF-295; > 100 µM (inactive) in the assay on OVCAR-4; > 100 µM (inactive) with TK-10. Besides, the GI50 in the assay with Hs-578T was 32 µM (inactive); in the assay with RXF 393, 31.2 µM (inactive); in the assay on SK-OV-3, 75.5 µM (inactive); in the assay with OVCAR-5, 72.9 µM (inactive); in the assay on HCT-15, 77.6 µM; in the assay on SW-620, 82.6 µM (inactive). For the same compound, the GI50 was 57.7 µM (inactive) in the assay on Malme-3M, 56.6 µM (inactive) with DU-145, 71.1 µM (inactive) in the assay on SNB-19 and > 100 µM (inactive) with SNB-75.
With `OCc1cn(C(c2ccccc2)(c2ccccc2)c2ccccc2)cn1`, the GI50 in the assay on T47D was > 100 µM (inactive); in the assay with MDA-MB-435, > 100 µM (inactive); in the assay on SR, > 100 µM (inactive); in the assay with SF-295, 32.3 µM (inactive); in the assay on OVCAR-4, > 100 µM (inactive); in the assay with TK-10, > 100 µM (inactive). Further, the GI50 is 33.7 µM (inactive) with Hs-578T; 66.4 µM (inactive) with SK-OV-3; > 100 µM (inactive) with OVCAR-5; > 100 µM in the assay with HCT-15; > 100 µM (inactive) in the assay with SW-620; > 100 µM (inactive) in the assay with DU-145. The GI50 is > 100 µM (inactive) with UACC-257, > 100 µM (inactive) in the assay on SNB-19 and 22.2 µM (inactive) in the assay on SNB-75.
As to `O=C(Nc1cccc(C(=O)NCCCO)c1)/C(=C/c1ccccc1)NC(=O)c1ccccc1`, the GI50 with T47D, in the assay with MDA-MB-435, in the assay with 786-0, in the assay with SF-295, in the assay with OVCAR-4 and in the assay with TK-10 was > 100 µM (inactive) each time. The GI50 was > 100 µM (inactive) in the assay on BT-549; > 100 µM (inactive) in the assay with Hs-578T; > 100 µM (inactive) with RXF 393; > 100 µM (inactive) with SK-OV-3; > 100 µM (inactive) in the assay on OVCAR-5; > 100 µM with HCT-15. The GI50 in the assay on SW-620, in the assay on Malme-3M, with DU-145, in the assay on UACC-257, in the assay with SNB-19 and in the assay on SNB-75 was > 100 µM (inactive) in each case.
In the case of `CCP(=O)(CC)C(Cl)(Cl)C(O)C(C)(C)C` (stereo not drawn), the GI50 with T47D, in the assay on MDA-MB-435, in the assay on SR, with SF-295, with OVCAR-4 and in the assay on TK-10 was > 100 µM (inactive) throughout. For the same compound, the GI50 in the assay on Hs-578T is > 100 µM (inactive); in the assay on SK-OV-3, > 100 µM (inactive); with OVCAR-5 it was > 100 µM (inactive); with HCT-15 it was > 100 µM; in the assay on SW-620 it was > 100 µM (inactive); with DU-145, > 100 µM (inactive). Moreover, the GI50 in the assay with UACC-257, with SNB-19 and in the assay with SNB-75 was > 100 µM (inactive) throughout.
Take `CCN1C(=O)c2cc(OC)c(OC)cc2C(=O)C12OC(=O)c1cc3c(cc12)OCO3` (stereo not drawn): the GI50 in the assay on MDA-MB-435 is > 100 µM (inactive); with 786-0, 22.4 µM (inactive); in the assay with SR it was 51.4 µM (inactive); with SF-295 it was 68.7 µM (inactive); in the assay on OVCAR-4 it was 69.8 µM (inactive); in the assay with TK-10, 75.7 µM (inactive). The GI50 was > 100 µM (inactive) with BT-549; 36.8 µM (inactive) in the assay on Hs-578T; 25.8 µM (inactive) in the assay with RXF 393; > 100 µM (inactive) with OVCAR-5; > 100 µM in the assay with HCT-15; > 100 µM (inactive) in the assay with SW-620. For the same compound, the GI50 with Malme-3M is > 100 µM (inactive); in the assay with DU-145, 31.3 µM (inactive); with UACC-257, > 100 µM (inactive); in the assay on SNB-19 it was 39.5 µM (inactive); with SNB-75, 23 µM (inactive).
With `CC(C)c1cccc(C(C)C)c1OS(=O)(=O)NC(=O)OC(C(F)(F)F)C(F)(F)F`, the GI50 is 57.1 µM (inactive) in the assay on MDA-MB-435; 36 µM (inactive) in the assay with SR; 25.3 µM (inactive) in the assay with SF-295; 50.1 µM (inactive) with OVCAR-4; > 100 µM (inactive) with TK-10; 67.8 µM (inactive) in the assay on BT-549. The GI50 in the assay on Hs-578T is > 100 µM (inactive); in the assay with SK-OV-3, 46.7 µM (inactive); in the assay on OVCAR-5 it was > 100 µM (inactive); with HCT-15 it was 34.1 µM; with SW-620, 51.6 µM (inactive); with Malme-3M, > 100 µM (inactive). For the same compound, the GI50 is 33.5 µM (inactive) with DU-145, 53.7 µM (inactive) with UACC-257 and 28.2 µM (inactive) with SNB-19.
With `Nc1ncc2c(n1)-c1ccccc1OC2N1CCCC1` (stereo not drawn), the GI50 in the assay with MDA-MB-435, with 786-0, in the assay on SR, in the assay with SF-295, in the assay with OVCAR-4 and in the assay on TK-10 was > 100 µM (inactive) in each case. Further, the GI50 with Hs-578T was > 100 µM (inactive); in the assay on RXF 393, 94.8 µM (inactive); in the assay with SK-OV-3, > 100 µM (inactive); in the assay on OVCAR-5, > 100 µM (inactive); with HCT-15 it was > 100 µM; with SW-620, > 100 µM (inactive). Moreover, the GI50 in the assay with Malme-3M was > 100 µM (inactive); with DU-145 it was > 100 µM (inactive); in the assay with UACC-257 it was > 100 µM (inactive); in the assay on SNB-19, > 100 µM (inactive); in the assay on SNB-75, 29 µM (inactive).
With `CN(NC(=O)c1cccs1)C1=NCCCN1`, the GI50 in the assay with T47D, in the assay on MDA-MB-435, in the assay with 786-0, with SR, in the assay on SF-295 and in the assay with OVCAR-4 was > 100 µM (inactive) throughout. Moreover, the GI50 in the assay with TK-10, in the assay on BT-549, with Hs-578T, with RXF 393, in the assay on SK-OV-3 and with OVCAR-5 was > 100 µM (inactive) throughout. Also, the GI50 in the assay on HCT-15 was > 100 µM; in the assay with SW-620, > 100 µM (inactive); with Malme-3M it was > 100 µM (inactive); in the assay with UACC-257, > 100 µM (inactive); in the assay on SNB-19 it was > 100 µM (inactive); with SNB-75, > 100 µM (inactive).
On to `O=c1[nH]nc(Cn2c3ccc(Br)cc3c3nc4ccccc4nc32)n1C1CCCCC1`, for which the GI50 is 57.9 µM (inactive) with T47D; 28.1 µM (inactive) in the assay with MDA-MB-435; 25.2 µM (inactive) in the assay on 786-0; 2.08 µM (inactive) in the assay with SR; 32.7 µM (inactive) in the assay with SF-295; 18.6 µM (inactive) with OVCAR-4. For the same compound, the GI50 was 29.8 µM (inactive) in the assay on TK-10; 42.3 µM (inactive) in the assay on BT-549; 23.8 µM (inactive) in the assay with RXF 393; 87.1 µM (inactive) in the assay on SK-OV-3; 34.2 µM (inactive) in the assay with OVCAR-5; > 100 µM in the assay with HCT-15. Moreover, the GI50 in the assay with SW-620 was 52.7 µM (inactive); with DU-145, 32 µM (inactive); with UACC-257, 26.2 µM (inactive); in the assay with SNB-19, > 100 µM (inactive); in the assay on SNB-75, > 100 µM (inactive).
